Tests used:
[1] = Acute Toxicity in Mice; assay type: in vivo; conditions: mouse, in vivo, death rate recorded 9 days after treatment
Protocol: (§1) The compounds were administered orally or intraperitoneally, in the form of a solution in physiological saline (0,9 % NaCl), to male mice of Swiss strain (body weight: 22-25 g). The death rate was recorded 9 days after the treatment. […]

[2] = tested on: aconitine-induced dysrhythmia; test: Anti-dysrhythmic activity, aconitine test in rats; assay type: in vivo, rat
Protocol: The animals are anesthetized with urethane (1 g/kg i.p.); an aconitine sulfate injection (27.5 μg/kg) is made in the pre-catheterized jugular vein, 30 minutes after administration by the same route of one of the test compounds. The time delay before the appearance of the first burst of dysrhythmia is noted on the electrocardiogram (D2 lead recording) and compared with reference animals.

[3] = tested on: cardiac rhythm; conditions: described in DE-A-1770 752; cited from earlier work
[4] = tested on: collagen-induced blood-platelet aggregation (platelet rich plasma); test: Collagen-induced blood-platelet aggregation; assay type: cell-based, rabbit; conditions: for minimal effective concentration: Oryctolagus cuniculus, Platelet, read-out: Collagen-induced blood-platelet aggregation: Threshold concentrations (inhibition of aggregation <50%)
Protocol: Collagen-induced blood-platelet aggregation
Blood samples were taken from the carotid artery in rabbits, using an anticoagulant (sodium citrate at 3.8%, 1 volume per 9 volumes of blood). The platelet rich plasma (PRP) was obtained by slow centrifugation (1200 RPM for 10 mn), and the platelet poor plasma (PPP) by rapid centrifugation (4500 RPM for 15 mn). The PRP samples were placed in the cell of an aggregometer, incubated at 37° C., after which was added thereto Michaelis buffer containing the test compound (0.04 ml), followed by the aggregating agent (collagen: 0.08 ml of collagen suspension previously incubated at 33° C. for 90 seconds). Blood-platelet aggregation is evidenced by the decrease of the optical density of the PRP (Initial O.D. of the PRP: 100%. Initial O.D. of the PPP=0%.)

[5] = tested on: human plasma clots; test: Fibrinolytic activity (lysis of human plasma clots); parameters: Concentration inducing lysis of the clot within 24 hours / Concentration inducing lysis of the clot within 48 hours: unit not given here; conditions: for Concentration inducing lysis of the clot within 24 hours / Concentration inducing lysis of the clot within 48 hours: human plasma clot, veronal buffer pH 7.2-7.4, 37° C.
Protocol: The following method was used.
Human plasma clots were prepared by recalcification (one drop of calcium thrombase at 20 U/ml per 0.5 ml of plasma), so that the clot formed around the hook of a glass rod. The clots were then suspended in buffered solutions (veronal buffer pH 7.2-7.4) maintained at 37° C. The eventual lysis of the clot is recorded after 24 hrs and 48 hrs incubation.

[6] = tested on: male mice of Swiss strain; test: Acute Toxicity in Mice; assay type: in vivo; conditions: result in words
Protocol: as §1

[7] = tested on: α-adrenolytic activity; test: α-adrenolytic activity observed in dog after an injection of nor-adrenalin; assay type: in vivo; conditions: result in words
[8] = Rattus norvegicus, iv, read-out: Aconitine-induced dysrhythmia, percent animals protected
[9] = rabbit PRP, 37° C., collagen, threshold concentrations

SMILES | mortality at 216 h ([1]; po, 200 mg/kg p.o.) [%] | mortality at 216 h ([1]; ip, 100 mg/kg i.p.) [%] | minimal effective concentration [4, 9] [µg/mL] | Concentration inducing lysis of the clot within 48 hours [5] | further results
COc1ccc(CCN=C2CCCN2C)cc1OC [Compound A, 1-methyl-2-[(3,4-dimethoxy-phenylethyl)imino]pyrrolidine, reference compound] | 0 |  |  |  | mortality at 216 h ([1]; ip, 200 mg/kg i.p.): 60%; responders at 5 mg/kg [2, 8]: 0%; action on the cardiac rhythm [3]: decreasing action on the cardiac rhythm; Collagen-induced blood-platelet aggregation: Threshold concentrations (inhibition of aggregation <50%) [4, 9]: inactive
CN1CC(c2ccccc2)CC1=NCCc1ccccc1 (stereo not drawn) [Example 1, 1-Methyl-4-phenyl-2-phenylethylimino-pyrrolidine] | 0 | 80 |  |  | responders at 1 mg/kg [2, 8]: 25%
CC(Cc1ccccc1)N=C1CC(c2ccccc2)CN1C (stereo not drawn) [Example 2, 1-Methyl-4-phenyl-2-phenylisopropylimino-pyrrolidine] | 83 | 100 | 10 |  | responders at 1 mg/kg [2, 8]: 67%
CN1CC(c2ccccc2)CC1=NCCOc1ccccc1 (stereo not drawn) [Example 3, 1-Methyl-4-phenyl-2-(2-phenoxy-ethylimino)pyrrolidine] | 0 |  | 1 to 3 |  | Concentration inducing lysis of the clot within 24 hours [5]: 10-20; fibrinolytic activity ([5]; result in words): a fibrinolytic activity; toxicity [6]: least toxic in mice; mortality at 216 h ([1]; ip, 200 mg/kg i.p.): 0%; responders at 10 mg/kg [2, 8]: 83%; anti-arrhythmic activity ([2]; result in words): an anti-arrhythmic activity; anti-blood-platelet-aggregation activity ([4]; result in words): possesses an anti-blood-platelet aggregating activity; α-adrenolytic activity [7]: an α-adrenolytic activity
COc1ccc(CCN=C2CC(c3ccccc3)CN2C)cc1OC (stereo not drawn) [Example 4, 1-Methyl-4-phenyl-2-(3',4'-dimethoxy-phenethylimino)pyrrolidine] | 0 |  | 10 to 30 |  | mortality at 216 h ([1]; ip, 200 mg/kg i.p.): 100%; responders at 7.5 mg/kg [2, 8]: 90%
CCN1CC(c2ccccc2)CC1=NCCc1ccc(OC)c(OC)c1 (stereo not drawn) [Example 5, 1-Ethyl-4-phenyl-2-(3',4'-dimethoxy-phenethylimino)pyrrolidine] | 0 | 20 | 3 to 10 |  | 
CCCN1CC(c2ccccc2)CC1=NCCOc1ccccc1 (stereo not drawn) [Example 6, 1-n.Propyl-4-phenyl-2-(phenoxyethyl-imino)pyrrolidine] |  |  | 1 to 3 | 5-10 | 
C=CCN1CC(c2ccccc2)CC1=NCCc1ccc(OC)c(OC)c1 (stereo not drawn) [Example 7, 1-Allyl-4-phenyl-2-(3',4'-dimethoxy-phenethyl-imino)pyrrolidine] |  |  | 10 | 10-20 | 
CCCN=C1CC(c2cc3ccccc3o2)CN1C (stereo not drawn) [Example 8, 1-Methyl-4-(2-benzofuryl)-2-n.propyl-imino-pyrrolidine] |  |  | 10 to 30 | 20 | 
C=CCN=C1CC(c2cc3ccccc3o2)CN1C (stereo not drawn) [Example 9, 1-Methyl-4-(2-benzofuryl)-2-allylimino-pyrrolidine] |  | 60 | 3 to 10 |  | mortality at 216 h ([1]; po, 100 mg/kg p.o.): 0%
C#CCN=C1CC(c2cc3ccccc3o2)CN1C (stereo not drawn) [Example 10, 1-Methyl-4-(2-benzofuryl)-2-propargylimino-pyrrolidine] |  |  | 100 |  | 
CN1CC(c2cc3ccccc3o2)CC1=NCCO (stereo not drawn) [Example 11] | 0 |  | 10 to 100 |  | mortality at 216 h ([1]; ip, 200 mg/kg i.p.): 80%
COCCN=C1CC(c2cc3ccccc3o2)CN1C (stereo not drawn) [Example 12, 1-Methyl-4-(2-benzofuryl)-2-(2-methoxy-ethylimino)-pyrrolidine] | 0 | 100 | 3 to 30 |  | 
CN1CC(c2cc3ccccc3o2)CC1=NCCc1ccccc1 (stereo not drawn) [Example 13, 1-Methyl-4-(2-benzofuryl)-2-phenethylimino-pyrrolidine] | 0 | 100 | 3 to 30 | 2.5-5 | Concentration inducing lysis of the clot within 24 hours [5]: 10; responders at 5 mg/kg [2, 8]: 50%
CC(Cc1ccccc1)N=C1CC(c2cc3ccccc3o2)CN1C (stereo not drawn) [Example 14, 1-Methyl-4-(2-benzofuryl)-2-phenylisopropyl-imino-pyrrolidine] | 0 | 80 | 3 to 10 |  | responders at 5 mg/kg [2, 8]: 100%
CN1CC(c2cc3ccccc3o2)CC1=NCCOc1ccccc1 (stereo not drawn) [Example 15, 1-Methyl-4-(2-benzofuryl)-2-(2-phenoxy-ethylimino)-pyrrolidine] | 10 | 100 |  |  | responders at 5 mg/kg [2, 8]: 80%
COc1ccc(CCN=C2CC(c3cc4ccccc4o3)CN2C)cc1OC (stereo not drawn) [Example 16] | 0 | 100 | 10 to 30 |  | responders at 3 mg/kg [2, 8]: 80%
CN1CC(COc2ccccc2)CC1=NCCOc1ccccc1 (stereo not drawn) [Example 17, 1-Methyl-4-phenoxymethyl-2-(2-phenoxy-ethylimino)-pyrrolidine] |  |  | 3 |  | responders at 10 mg/kg [2, 8]: 100%
COc1ccc(CCN=C2CC(COc3ccccc3)CN2C)cc1OC (stereo not drawn) [Example 18, 1-Methyl-4-phenoxymethyl-2-(3',4'-dimethoxy-phenethylimino)pyrrolidine] | 0 | 40 | 10 to 30 | 20 | responders at 5 mg/kg [2, 8]: 100%
CN1CC(COc2ccc3c(c2)OCO3)CC1=NCCOc1ccccc1 (stereo not drawn) [Example 19, 1-Methyl-4-(3',4'-methylenedioxy-phenoxymethyl)-2-(2-phenoxy-ethylimino)-pyrrolidine] | 0 | 80 | 3 to 10 |  | responders at 2.5 mg/kg [2, 8]: 25%
COc1ccc(CCN=C2CC(COc3ccc4c(c3)OCO4)CN2C)cc1OC (stereo not drawn) [Example 20, 1-Methyl-4-(3',4'-methylenedioxy-phenoxymethyl)-4-(3',4'-dimethoxy-phenethylimino)pyrrolidine] | 0 | 80 | 10 to 30 |  | responders at 10 mg/kg [2, 8]: 100%
CCc1ccccc1OCC1CC(=NCCc2ccc(OC)c(OC)c2)N(C)C1 (stereo not drawn) [Example 21, 1-Methyl-4-(2'-ethyl-phenoxymethyl)-2-(3',4'-dimethoxy-phenethylimino)pyrrolidine] | 0 |  | 3 | 10-20 | mortality at 216 h ([1]; ip, 33 mg/kg i.p.): 20%; responders at 7.5 mg/kg [2, 8]: 100%
CN1CC(COc2ccccc2C#N)CC1=NCCOc1ccccc1 (stereo not drawn) [Example 22, 1-Methyl-4-(2'-cyano-phenoxymethyl)-2-(2-phenoxyethylimino)-pyrrolidine] | 0 |  | 30 | 5-10 | Concentration inducing lysis of the clot within 24 hours [5]: 20; mortality at 216 h ([1]; ip, 33 mg/kg i.p.): 40%

Reference: patent US4556674A, “2-Imino-pyrrolidines, process for their preparation, and therapeutic compositions containing same” (Laboratoires Jacques Logeais, priority 1983, dated 1985)
